Patent US9273058B2 (BRISTOL-MYERS SQUIBB COMPANY, priority 2013, dated 2016)

Columns and labels:
[1] = target: CK1ε (Homo sapiens, UniProt P49674); experiment: CK1ε kinase assay (Caliper LabChip electrophoretic separation of fluoresceinated peptide substrate and product); assay type: biochemical; conditions: 200 pM CK1ε, 50 μM ATP, 1.5 μM peptide, 22 hours at room temperature; read-out: CK1ε IC50 range
Method in brief: (§1)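 Each reaction was incubated 22 hours at room temperature and terminated with EDTA. Read-out was microfluidic electrophoretic separation of fluoresceinated substrate and phospho-product.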

[2] = target: CK1δ (Homo sapiens, UniProt P48730); experiment: CK1δ kinase assay (Caliper LabChip electrophoretic separation of fluoresceinated peptide substrate and product); assay type: biochemical; conditions: 200 pM CK1δ, 50 μM ATP, 1.5 μM peptide, 22 hours at room temperature; read-out: CK1δ IC50 range
Method in brief: as §1

Sequence of CK1ε (P49674 whole entry): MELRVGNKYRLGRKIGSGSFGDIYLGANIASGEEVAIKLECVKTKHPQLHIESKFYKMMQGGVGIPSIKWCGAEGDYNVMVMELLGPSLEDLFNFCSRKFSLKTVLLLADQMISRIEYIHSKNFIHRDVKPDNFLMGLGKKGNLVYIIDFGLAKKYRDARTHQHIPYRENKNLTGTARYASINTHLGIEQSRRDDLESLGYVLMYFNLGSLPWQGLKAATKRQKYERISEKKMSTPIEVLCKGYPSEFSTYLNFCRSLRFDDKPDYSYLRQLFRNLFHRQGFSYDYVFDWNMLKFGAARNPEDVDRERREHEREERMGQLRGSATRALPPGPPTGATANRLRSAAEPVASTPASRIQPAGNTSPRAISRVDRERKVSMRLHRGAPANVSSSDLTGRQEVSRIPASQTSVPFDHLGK
Sequence of CK1δ (P48730 whole entry): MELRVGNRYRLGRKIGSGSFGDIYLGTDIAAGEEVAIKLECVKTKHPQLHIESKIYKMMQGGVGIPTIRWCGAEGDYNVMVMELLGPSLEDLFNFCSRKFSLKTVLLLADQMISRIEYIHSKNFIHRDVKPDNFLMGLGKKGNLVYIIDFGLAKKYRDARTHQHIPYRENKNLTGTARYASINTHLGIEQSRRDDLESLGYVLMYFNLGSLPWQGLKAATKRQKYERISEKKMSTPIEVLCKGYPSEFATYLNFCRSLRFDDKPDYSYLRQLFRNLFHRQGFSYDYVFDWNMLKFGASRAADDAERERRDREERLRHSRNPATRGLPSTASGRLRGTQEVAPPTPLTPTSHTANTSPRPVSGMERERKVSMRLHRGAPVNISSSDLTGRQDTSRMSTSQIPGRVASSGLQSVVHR

IC50 [1] [nM] | IC50 [2] [nM] | Structure (SMILES)
0.01 to 10 | 0.01 to 10 | NC(=O)c1c(-c2ccc(Cl)c(Cl)c2)nn2c1CN(C(=O)NC1(c3ccc(F)cc3)CC(F)(F)C1)CC2 [Compound 310, 2-(3,4-Dichlorophenyl)-N^5-(3,3-difluoro-1-(4-fluorophenyl)cyclobutyl)-6,7-dihydropyrazolo[1,5-a] pyrazine-3,5(4H)-dicarboxamide]
0.01 to 10 | 0.01 to 10 | NC(=O)c1c(-c2ccc(F)c(Cl)c2)nn2c1CN(C(=O)NC1(c3cccnc3)CC(F)(F)C1)CC2 [Compound 311, 2-(3-Chloro-4-fluorophenyl)-N^5-(3,3-difluoro-1-(pyridin-3-yl)cyclobutyl)-6,7-dihydropyrazolo[1,5-a]pyrazine-3,5(4H)-dicarboxamide]
0.01 to 10 | 0.01 to 10 | NC(=O)c1c(-c2cccc(Cl)c2)nn2c1CN(C(=O)NC1(c3cccnc3)CC(F)(F)C1)CC2 [Compound 312, 2-(3-Chlorophenyl)-N^5-(3,3-difluoro-1-(pyridin-3-yl)cyclobutyl)-6,7-dihydropyrazolo[1,5-a]pyrazine-3,5(4H)-dicarboxamide]
0.01 to 10 | 0.01 to 10 | NC(=O)c1c(-c2ccc(Cl)c(Cl)c2)nn2c1CN(C(=O)NC1(c3cccnc3)CC(F)(F)C1)CC2 [Compound 313, 2-(3,4-Dichlorophenyl)-N^5-(3,3-difluoro-1-(pyridin-3-yl)cyclobutyl)-6,7-dihydropyrazolo[1,5-a]pyrazine-3,5(4H)-dicarboxamide]
0.01 to 10 | 0.01 to 10 | N#Cc1ccc(C2(NC(=O)N3CCn4nc(-c5ccc(F)c(Cl)c5)c(C(N)=O)c4C3)CC(F)(F)C2)cc1 [Compound 314, 2-(3-Chloro-4-fluorophenyl)-N^5-(1-(4-cyanophenyl)-3,3-difluorocyclobutyl)-6,7-dihydropyrazolo[1,5-a]pyrazine-3,5(4H)-dicarboxamide]
0.01 to 10 | 0.01 to 10 | N#Cc1ccc(C2(NC(=O)N3CCn4nc(-c5cccc(Cl)c5)c(C(N)=O)c4C3)CC(F)(F)C2)cc1 [Compound 315, 2-(3-Chlorophenyl)-N^5-(1-(4-cyanophenyl)-3,3-difluorocyclobutyl)-6,7-dihydropyrazolo[1,5-a]pyrazine-3,5(4H)-dicarboxamide]
0.01 to 10 | 0.01 to 10 | N#Cc1ccc(C2(NC(=O)N3CCn4nc(-c5ccc(Cl)c(Cl)c5)c(C(N)=O)c4C3)CC(F)(F)C2)cc1 [Compound 316, N^5-(1-(4-Cyanophenyl)-3,3-difluorocyclobutyl)-2-(3,4-dichlorophenyl)-6,7-dihydropyrazolo[1,5-a]pyrazine-3,5(4H)-dicarboxamide]
0.01 to 10 | 0.01 to 10 | CC1(NC(=O)N2CCn3nc(-c4ccc(F)c(Cl)c4)c(C(N)=O)c3C2)CC2(CC2)C1 [Compound 317, 2-(3-Chloro-4-fluorophenyl)-N^5-(5-methylspiro[2.3]hexan-5-yl)-6,7-dihydropyrazolo[1,5-a]pyrazine-3,5(4H)-dicarboxamide]
0.01 to 10 | 0.01 to 10 | CC1(NC(=O)N2CCn3nc(-c4cccc(Cl)c4)c(C(N)=O)c3C2)CC2(CC2)C1 [Compound 318, 2-(3-Chlorophenyl)-N^5-(5-methylspiro[2.3]hexan-5-yl)-6,7-dihydropyrazolo[1,5-a]pyrazine-3,5(4H)-dicarboxamide]
0.01 to 10 | 0.01 to 10 | CC1(NC(=O)N2CCn3nc(-c4ccc(Cl)c(Cl)c4)c(C(N)=O)c3C2)CC2(CC2)C1 [Compound 319, 2-(3,4-Dichlorophenyl)-N^5-(5-methylspiro[2.3]hexan-5-yl)-6,7-dihydropyrazolo[1,5-a]pyrazine-3,5(4H)-dicarboxamide]
0.01 to 10 | 0.01 to 10 | N#CC1(NC(=O)N2CCn3nc(-c4ccc(F)c(Cl)c4)c(C(N)=O)c3C2)CCOC1 (stereo not shown) [Compound 334, 2-(3-Chloro-4-fluorophenyl)-N^5-(3-cyanotetrahydrofuran-3-yl)-6,7-dihydropyrazolo[1,5-a]pyrazine-3,5(4H)-dicarboxamide]

Continued, molecule first:

Structure (SMILES) | IC50 [1] [nM] | IC50 [2] [nM]
CC1(NC(=O)N2CCn3nc(-c4cc(Cl)cc(Cl)c4)c(C(N)=O)c3C2)CC(F)(F)C1 [Compound 298, 2-(3,5-Dichlorophenyl)-N^5-(3,3-difluoro-1-methylcyclobutyl)-6,7-dihydropyrazolo[1,5-a] pyrazine-3,5(4H)-dicarboxamide] | 0.01 to 10 | 0.01 to 10
CC1(NC(=O)N2CCn3nc(-c4cccc(Cl)c4)c(C(N)=O)c3C2)CC(F)(F)C1 [Compound 299, 2-(3-Chlorophenyl)-N^5-(3,3-difluoro-1-methylcyclobutyl)-6,7-dihydropyrazolo[1,5-a] pyrazine-3,5(4H)-dicarboxamide] | 0.01 to 10 | 0.01 to 10
CC1(NC(=O)N2CCn3nc(-c4cc(F)cc(Cl)c4)c(C(N)=O)c3C2)CC(F)(F)C1 [Compound 300, 2-(3-Chloro-5-fluorophenyl)-N^5-(3,3-difluoro-1-methylcyclobutyl)-6,7-dihydropyrazolo[1,5-a]pyrazine-3,5(4H)-dicarboxamide] | 0.01 to 10 | 0.01 to 10
NC(=O)c1c(-c2ccc(F)c(Cl)c2)nn2c1CN(C(=O)NC1(C(F)F)CC(F)(F)C1)CC2 [Compound 304, 2-(3-Chloro-4-fluorophenyl)-N^5-(1-(difluoromethyl)-3,3-difluorocyclobutyl)-6,7-dihydropyrazolo[1,5-a]pyrazine-3,5(4H)-dicarboxamide] | 0.01 to 10 | 0.01 to 10
NC(=O)c1c(-c2ccc(Cl)c(Cl)c2)nn2c1CN(C(=O)NC1(C(F)F)CC(F)(F)C1)CC2 [Compound 305, 2-(3,4-Dichlorophenyl)-N^5-(1-(difluoromethyl)-3,3-difluorocyclobutyl)-6,7-dihydropyrazolo[1,5-a] pyrazine-3,5(4H)-dicarboxamide] | 0.01 to 10 | 0.01 to 10
NC(=O)c1c(-c2cccc(Cl)c2)nn2c1CN(C(=O)NC1(C(F)F)CC(F)(F)C1)CC2 [Compound 306, 2-(3-Chlorophenyl)-N^5-(1-(difluoromethyl)-3,3-difluorocyclobutyl)-6,7-dihydropyrazolo[1,5-a] pyrazine-3,5(4H)-dicarboxamide] | 0.01 to 10 | 0.01 to 10
CC1(F)CC(C)(NC(=O)N2CCn3nc(-c4ccc(F)c(Cl)c4)c(C(N)=O)c3C2)C1 (stereo not shown) [Compound 307, 2-(3-Chloro-4-fluorophenyl)-N^5-(3-fluoro-1,3-dimethylcyclobutyl)-6,7-dihydropyrazolo[1,5-a]pyrazine-3,5(4H)-dicarboxamide] | 0.01 to 10 | 0.01 to 10
NC(=O)c1c(-c2ccc(F)c(Cl)c2)nn2c1CN(C(=O)NC1(c3ccc(F)cc3)CC(F)(F)C1)CC2 [Compound 308, 2-(3-Chloro-4-fluorophenyl)-N^5-(3,3-difluoro-1-(4-fluorophenyl)cyclobutyl)-6,7-dihydropyrazolo[1,5-a]pyrazine-3,5(4H)-dicarboxamide] | 0.01 to 10 | 0.01 to 10
NC(=O)c1c(-c2cccc(Cl)c2)nn2c1CN(C(=O)NC1(c3ccc(F)cc3)CC(F)(F)C1)CC2 [Compound 309, 2-(3-Chlorophenyl)-N^5-(3,3-difluoro-1-(4-fluorophenyl)cyclobutyl)-6,7-dihydropyrazolo[1,5-a] pyrazine-3,5(4H)-dicarboxamide] | 0.01 to 10 | 0.01 to 10
